Here are results for 55 compounds from ChEMBL document CHEMBL1201862, “PubChem BioAssay data set” (2004).

Test systems include MDA-N; LXFL 529; HOP-18; DMS-114; KM-20L2; M19-MEL; DLD-1; DMS-273.
Experiment in all cases: NCI-60 cell line screen, 48 h

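Where inhibition never reached the appropriate level, the endpoint shown equals the highest concentration tested. Otherwise, values were interpolated linearly from a five-concentration, 48-hour dose response in 96-well plates. GI50 is the concentration that inhibits growth by half.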 The source made the active and inactive calls. No stated cut-off is given here; in the data, active = GI50 up to about 1.1 µM and inactive = higher.

On to `COc1ccc(/N=N/c2ccc3oc(=O)c(C(=O)Nc4ccc(OC)cc4)cc3c2)cc1`, for which the GI50 with MDA-N is 25.5 µM (inactive).

Consider `CC1CCCN(CC(O)CN2CCCc3ccccc32)C1` (centres undefined), for which the GI50 in the experiment on MDA-N is > 100 µM (inactive).

In the case of `CN1C2CCC1CC(CC(=O)NC(c1ccc(F)cc1)c1ccc(F)cc1)C2` (centres undefined), the GI50 with MDA-N is 41.9 µM (inactive).

In the case of `OCC1C(OCc2ccccc2)C(OCc2ccccc2)C(OCc2ccccc2)CN1Cc1ccccc1` (centres undefined), in the experiment with MDA-N, the GI50 is 35.4 µM (inactive).

Consider `COc1cc2cc(C(=O)N3CC(CCl)c4ccc([N+](C)(C)Cc5ccccc5[N+](=O)[O-])cc43)[nH]c2c(OC)c1OC` (centres undefined), for which, in the experiment on MDA-N, the GI50 was 2.26 µM (inactive).

For `O=c1[nH]c(=O)n(C2OC(CO)C(O)C(O)C2O)cc1F` (centres undefined), the GI50 in the experiment on LXFL 529, with MDA-N, with HOP-18, with DMS-114, in the experiment on KM-20L2 and in the experiment with M19-MEL was > 100 µM (inactive) in each case. For the same compound, the GI50 in the experiment on DLD-1 was > 100 µM (inactive).

`COC(=O)C1=C(C(=O)OC)C(OO)(c2ccccc2)OC1=O` (centres undefined): in the experiment on MDA-N, the GI50 is 91.4 µM (inactive).

On to `COc1ccc(CCCCNCc2cccc(CNCCCCc3ccc(OC)cc3)c2)cc1`, for which, in the experiment with MDA-N, the GI50 was 2 µM (inactive).

`CCC1(Br)C(=O)NC(=O)N(C2CC(O)C(CO)O2)C1N=[N+]=[N-]` (centres undefined): the GI50 in the experiment with LXFL 529 is > 100 µM (inactive); in the experiment with DMS-273, > 100 µM (inactive); in the experiment with DMS-114, 72.1 µM (inactive); in the experiment on KM-20L2, > 100 µM (inactive); in the experiment with M19-MEL, > 100 µM (inactive); with DLD-1, > 100 µM (inactive).

As for `COC1CC(O[C@H]2CC[C@@]3(C)C(=CCC4(O)C3CCC35C(=O)OC6(C)O[C@@]43CCC65)C2)OC(C)C1O` (some centres undefined), the GI50 with LXFL 529, in the experiment on HOP-18, in the experiment on DMS-273, in the experiment with DMS-114, in the experiment on KM-20L2 and with M19-MEL was > 100 µM (inactive) in each case. Moreover, the GI50 with DLD-1 is > 100 µM (inactive).

Consider `COc1c2c(cc3c1C1(O)Cc4ccc5c(c4C[N+]1(C)CC3)OCO5)OCO2` (centres undefined), for which the GI50 in the experiment on MDA-N is > 100 µM (inactive).

With `NC(=O)C(=CNC(=S)Nc1cccc(C(F)(F)F)c1)C(N)=O`, the GI50 with MDA-N was > 100 µM (inactive).

Regarding `CC(C)(C)CC(C)(C)c1cc2c(O)c(c1)Cc1cc(C(C)(C)CC(C)(C)C)cc(c1O)Cc1cc(C(C)(C)CC(C)(C)C)cc(c1O)Cc1cc(C(C)(C)CC(C)(C)C)cc(c1O)Cc1cc(C(C)(C)CC(C)(C)C)cc(c1O)C2`, the GI50 in the experiment on LXFL 529, with DMS-273, in the experiment with DMS-114, in the experiment on KM-20L2, with M19-MEL and with DLD-1 was > 100 µM (inactive) throughout.

Turning to `CC1OC(O[C@@H]2OC=C(C=O)[C@@]3(O)CC[C@H](C)[C@@H]23)C(O)C(O)C1O` (some centres undefined), in the experiment on MDA-N, the GI50 was > 100 µM (inactive).

Turning to `C=CCOn1c(C=C)nc2c(C)cccc21`, in the experiment with MDA-N, the GI50 is 3.13 µM (inactive).

As to `CCOC(=O)NC(=S)NN(C)C1=NCC(C)(C)S1`, the GI50 with MDA-N is > 100 µM (inactive).

For `Cc1ccc(C)c(N2C(=O)C(=O)C(c3nc4ccccc4s3)/C(=N/N)C2=O)c1` (centres undefined), the GI50 in the experiment with LXFL 529 was > 100 µM (inactive); in the experiment on DMS-273 it was > 100 µM (inactive); in the experiment with DMS-114, > 100 µM (inactive); in the experiment with KM-20L2, > 100 µM (inactive); with M19-MEL it was > 20.2 µM (inactive); in the experiment with DLD-1 it was > 100 µM (inactive).

Turning to `[O-][n+]1ccc(NO)c2ccccc21`, the GI50 in the experiment on MDA-N is 4.72 µM (inactive).

On to `C=C[C@@]1(O)CCCC[C@@H]1CC(Sc1ccccc1)Sc1ccccc1`, for which the GI50 in the experiment with MDA-N is 20.1 µM (inactive).

On to `CC1=Nc2c(O)nc(S)nc2NC(c2ccc(Cl)c(Cl)c2)C1` (centres undefined), for which the GI50 is 19.4 µM (inactive) with LXFL 529; > 89.1 µM (inactive) in the experiment with HOP-18; 26.1 µM (inactive) in the experiment on DMS-273; 35.6 µM (inactive) in the experiment on DMS-114; 25.6 µM (inactive) with KM-20L2; 18.5 µM (inactive) in the experiment with M19-MEL. Moreover, in the experiment with DLD-1, the GI50 was 31.6 µM (inactive).

Regarding `CC[P+]1(CC)CCCC1`, the GI50 with LXFL 529, with HOP-18, with DMS-273, in the experiment on DMS-114, with KM-20L2 and in the experiment on M19-MEL was > 100 µM (inactive) each time. In addition, the GI50 with DLD-1 was > 100 µM (inactive).

Take `CC1OC(OC2C(O[C@H]3CC[C@@]4(C)[C@@H](CC[C@@H]5[C@@H]4CC[C@]4(C)[C@@H]6[C@H](C[C@@H]54)O[C@]4(CC[C@@H](C)CO4)[C@H]6C)C3)OC(CO)C(OC3OC(CO)C(O)C(OC4OCC(O)C(O)C4O)C3OC3OCC(O)C(O)C3O)C2O)C(O)C(O)C1O` (some centres undefined): in the experiment with MDA-N, the GI50 is 3.73 µM (inactive).

`NCCSCCc1ccccc1`: the GI50 in the experiment on MDA-N is > 100 µM (inactive).

For the compound `O=C(O)c1ccccc1C1c2ccccc2Oc2ccccc21`, the GI50 with MDA-N was 58.6 µM (inactive).

For `CC1CCC(O)(C(C)(C(=O)O)c2ccccc2)CC1` (centres undefined), in the experiment with MDA-N, the GI50 was > 100 µM (inactive).

In the case of `Cc1c(OCCCOc2ccc3c(=O)cc(-c4ccccc4)oc3c2C)ccc2c(=O)cc(-c3ccccc3)oc12`, the GI50 in the experiment on LXFL 529, in the experiment with HOP-18, in the experiment with DMS-273, with DMS-114, with KM-20L2 and with M19-MEL was > 100 µM (inactive) each time. Besides, the GI50 in the experiment on DLD-1 was > 100 µM (inactive).

Turning to `CC1=CC2C(C=C1)S(=O)(=O)N1CC21c1ccccc1` (centres undefined), the GI50 in the experiment with LXFL 529 is > 100 µM (inactive); with HOP-18, 54 µM (inactive); in the experiment on DMS-273 it was > 100 µM (inactive); with DMS-114, 21.4 µM (inactive); in the experiment on KM-20L2, > 100 µM (inactive); with M19-MEL it was > 100 µM (inactive). Besides, the GI50 in the experiment with DLD-1 is > 100 µM (inactive).

With `Sc1nnc(C23CC4CC(CC(C4)C2)C3)n1-c1ccc(Cl)cc1`, the GI50 in the experiment with MDA-N is 15.6 µM (inactive).

Consider `O=C(O)CC1NC(/C(=C/c2ccccc2)NC(=O)c2ccccc2)OC1=O` (centres undefined), for which the GI50 in the experiment on MDA-N was 30.1 µM (inactive).

As for `CCN(CC)c1ccc(/N=N/c2ccc(-c3nc4cccnc4o3)cc2)cc1`, the GI50 with LXFL 529 is > 100 µM (inactive); in the experiment with DMS-273, > 100 µM (inactive); in the experiment on DMS-114, > 100 µM (inactive); with KM-20L2, > 100 µM (inactive); in the experiment on M19-MEL, > 100 µM (inactive); with DLD-1, 60.3 µM (inactive).

As to `Cn1cc2ccccc2c1-c1nc(F)nc(F)n1`, the GI50 in the experiment with LXFL 529, with DMS-273, in the experiment with DMS-114, with KM-20L2, in the experiment with M19-MEL and in the experiment on DLD-1 was > 100 µM (inactive) each time.

On to `CC(C)CCC[C@@H](C)[C@H]1CC[C@H]2C3=C[C@H](OS(=O)(=O)O)[C@@]4(O)C[C@@H](O)CC[C@]4(C)[C@@]3(O)CC[C@]12C`, for which, in the experiment on MDA-N, the GI50 is > 100 µM (inactive).

As for `O=C(Nc1sccc1S(=O)(=O)c1ccc(Cl)cc1)C(F)(F)F`, the GI50 in the experiment with MDA-N is 8.28 µM (inactive).

On to `O=C1CSC(c2ccc(Cl)cc2)N1c1ccc(-c2ccc(-n3c(-c4ccccc4)nc4ccccc4c3=O)cc2)cc1` (centres undefined), for which the GI50 in the experiment on MDA-N is 32.1 µM (inactive).

With `CN(C)C=C1C(Cl)=C(C=O)CC(C=O)=C1Cl`, the GI50 with LXFL 529 is 2.03 µM (inactive); in the experiment on HOP-18, 13.3 µM (inactive); in the experiment on DMS-273, 11 µM (inactive); in the experiment with DMS-114, 11.2 µM (inactive); in the experiment with KM-20L2, 19.5 µM (inactive); in the experiment with M19-MEL it was 11.4 µM (inactive). For the same compound, the GI50 in the experiment on DLD-1 was 5.71 µM (inactive).

On to `O/N=C(\CC(O)(C(F)(F)F)C(F)(F)F)c1cccs1`, for which, in the experiment on MDA-N, the GI50 was > 10 µM (inactive).

On to `COc1nc2c(OC)cccc2c(OC)c1C=O`, for which the GI50 with HOP-18, in the experiment with DMS-273, in the experiment with DMS-114, in the experiment on KM-20L2 and in the experiment on M19-MEL was > 100 µM (inactive) throughout.

For `COC(=O)c1cc2c(n1S(=O)(=O)c1ccc(C)cc1)C(=O)C(=O)c1[nH]cc(C(=O)OCc3ccccc3)c1-2`, in the experiment with MDA-N, the GI50 was < 0.01 µM (active).

For `O=C(O)Cc1ccc2c(c1O)C(=O)c1c(ccc(CC(=O)O)c1O)C2=O`, the GI50 in the experiment on LXFL 529, in the experiment with HOP-18, with DMS-273, with DMS-114, in the experiment with KM-20L2 and in the experiment on M19-MEL was > 100 µM (inactive) each time. Moreover, the GI50 in the experiment with DLD-1 was > 100 µM (inactive).

As to `Cn1c(-c2cccs2)cc(-c2ccccc2)c1-c1cccs1`, the GI50 in the experiment on MDA-N is > 100 µM (inactive).

In the case of `CC(=O)/C(=C/NC(=S)Nc1ccccc1)C(=O)Nc1ccccc1C`, in the experiment on MDA-N, the GI50 is > 100 µM (inactive).

Take `CN(C)c1ccc2cc3ccc(N(C)C)cc3nc2c1` [ACRIDINE ORANGE]: the GI50 in the experiment on MDA-N was 1.19 µM (inactive).

Take `CC(C)(C)OC(=O)NCCCCC(NC(=O)OCc1ccccc1)C(N)=O` (centres undefined): the GI50 in the experiment with MDA-N is > 100 µM (inactive).

Take `COc1ccc2nc3ccc(OC)cc3c([S+]([O-])Cc3ccc([N+](=O)[O-])cc3)c2c1` (centres undefined): the GI50 with MDA-N is 14.2 µM (inactive).

Consider `O=[N+]([O-])c1ccc2[nH]c(-c3ccc(Cl)cc3)nc2c1`, for which, in the experiment on MDA-N, the GI50 is 24 µM (inactive).

As for `CN(C)C(=S)/N=c1\ss/c(=N\C(=S)N(C)C)n1-c1cccc(Cl)c1`, the GI50 in the experiment with DMS-273, in the experiment on DMS-114 and in the experiment on KM-20L2 was > 100 µM (inactive) each time.

For `CCOC(=O)CCCN`, the GI50 in the experiment on MDA-N is > 100 µM (inactive).

Take `O=c1[nH]cnc2c(C3OC(CO)C(O)C3O)c[nH]c12` (centres undefined): the GI50 with MDA-N is > 100 µM (inactive).

On to `NNc1nnc(-c2nnc(NN)o2)o1`, for which the GI50 with MDA-N was > 10 µM (inactive).

Consider `Cc1ccccc1C(=O)N1CCc2c([nH]c3ccccc23)C1`, for which the GI50 in the experiment with MDA-N is 18.9 µM (inactive).

As to `CN(C)CCCNc1ncnc2[nH]cnc12`, in the experiment with MDA-N, the GI50 was > 100 µM (inactive).

As to `COC(=O)c1ccccc1C1CN=NC12Cc1c(ccc3c1CCC3)C2=O` (centres undefined), in the experiment on MDA-N, the GI50 was 20.1 µM (inactive).

For `C[C@H]1[C@H](C)N(Cc2ccccc2)P(=O)(C(O)/C=C/c2ccccc2)N1Cc1ccccc1` (some centres undefined), the GI50 in the experiment with MDA-N is 5.55 µM (inactive).

On to `CCOP(=O)(OCC)/C(C#N)=C/c1coc2cc(C)cc(C)c2c1=O`, for which, in the experiment on MDA-N, the GI50 was > 100 µM (inactive).

Consider `O=c1oc2ccccc2cc1-c1nnc(-c2ccccc2)s1`, for which the GI50 in the experiment with MDA-N is 2.54 µM (inactive).
